From ChEMBL document CHEMBL4507291 (2021)

Key:
[1] = biological target: Tyrosine-protein kinase ABL1 (Homo sapiens) (UniProt P00519)
[2] = biological target: Cyclin-dependent kinase 2 (Homo sapiens) (UniProt P24941)
[3] = biological target: Cyclin-dependent kinase-like 3 (Homo sapiens) (UniProt Q8IVW4)
[4] = biological target: T1, Ephrin type-A receptor 8 (Homo sapiens) (UniProt P29322)
T1 sequence (whole entry): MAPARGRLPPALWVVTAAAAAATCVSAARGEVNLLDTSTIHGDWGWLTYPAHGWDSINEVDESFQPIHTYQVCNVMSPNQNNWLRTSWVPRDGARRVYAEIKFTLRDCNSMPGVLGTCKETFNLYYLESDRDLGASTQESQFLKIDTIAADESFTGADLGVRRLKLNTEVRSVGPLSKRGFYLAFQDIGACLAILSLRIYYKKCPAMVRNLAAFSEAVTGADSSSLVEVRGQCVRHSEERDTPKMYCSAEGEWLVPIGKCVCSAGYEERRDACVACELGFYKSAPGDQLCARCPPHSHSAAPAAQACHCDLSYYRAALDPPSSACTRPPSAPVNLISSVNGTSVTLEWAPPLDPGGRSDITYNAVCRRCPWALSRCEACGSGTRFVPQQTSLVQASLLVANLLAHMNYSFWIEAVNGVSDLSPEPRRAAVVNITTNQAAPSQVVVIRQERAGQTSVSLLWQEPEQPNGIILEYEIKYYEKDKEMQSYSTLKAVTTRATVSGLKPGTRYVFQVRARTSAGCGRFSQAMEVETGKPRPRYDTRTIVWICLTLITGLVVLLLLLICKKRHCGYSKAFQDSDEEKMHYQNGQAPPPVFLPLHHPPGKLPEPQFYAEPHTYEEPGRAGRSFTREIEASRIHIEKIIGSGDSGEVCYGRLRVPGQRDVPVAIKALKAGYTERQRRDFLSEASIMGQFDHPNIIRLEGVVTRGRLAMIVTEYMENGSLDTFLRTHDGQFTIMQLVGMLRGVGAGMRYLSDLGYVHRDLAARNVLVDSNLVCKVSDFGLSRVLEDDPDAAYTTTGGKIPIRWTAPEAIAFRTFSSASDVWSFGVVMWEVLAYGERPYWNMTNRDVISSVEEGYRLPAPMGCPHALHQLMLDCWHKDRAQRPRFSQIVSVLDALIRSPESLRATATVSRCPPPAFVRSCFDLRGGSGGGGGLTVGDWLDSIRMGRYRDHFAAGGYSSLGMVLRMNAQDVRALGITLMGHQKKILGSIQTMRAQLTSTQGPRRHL

[5] = biological target: G protein-coupled receptor kinase 4 (Homo sapiens) (UniProt P32298)
Chain of G protein-coupled receptor kinase 4 (Homo sapiens) (P32298 whole entry, looked up): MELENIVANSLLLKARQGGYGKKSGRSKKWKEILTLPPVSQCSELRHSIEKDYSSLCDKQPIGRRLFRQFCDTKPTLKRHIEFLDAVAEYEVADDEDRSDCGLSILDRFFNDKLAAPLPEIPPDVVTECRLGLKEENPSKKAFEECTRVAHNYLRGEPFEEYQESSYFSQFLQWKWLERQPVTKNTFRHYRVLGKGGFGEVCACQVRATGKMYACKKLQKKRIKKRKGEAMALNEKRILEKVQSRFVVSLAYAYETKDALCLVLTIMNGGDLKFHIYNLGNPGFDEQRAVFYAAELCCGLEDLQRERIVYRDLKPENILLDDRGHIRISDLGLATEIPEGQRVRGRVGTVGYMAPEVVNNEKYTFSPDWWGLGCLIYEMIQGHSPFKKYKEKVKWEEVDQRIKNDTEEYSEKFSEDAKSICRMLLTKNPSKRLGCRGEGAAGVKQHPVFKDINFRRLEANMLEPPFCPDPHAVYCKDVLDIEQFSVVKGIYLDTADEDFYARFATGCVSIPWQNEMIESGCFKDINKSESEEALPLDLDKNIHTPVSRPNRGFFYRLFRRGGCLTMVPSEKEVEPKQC

[6] = biological target: Serine/threonine-protein kinase haspin (Homo sapiens) (UniProt Q8TF76)
Chain of Serine/threonine-protein kinase haspin (Homo sapiens) (Q8TF76 whole entry): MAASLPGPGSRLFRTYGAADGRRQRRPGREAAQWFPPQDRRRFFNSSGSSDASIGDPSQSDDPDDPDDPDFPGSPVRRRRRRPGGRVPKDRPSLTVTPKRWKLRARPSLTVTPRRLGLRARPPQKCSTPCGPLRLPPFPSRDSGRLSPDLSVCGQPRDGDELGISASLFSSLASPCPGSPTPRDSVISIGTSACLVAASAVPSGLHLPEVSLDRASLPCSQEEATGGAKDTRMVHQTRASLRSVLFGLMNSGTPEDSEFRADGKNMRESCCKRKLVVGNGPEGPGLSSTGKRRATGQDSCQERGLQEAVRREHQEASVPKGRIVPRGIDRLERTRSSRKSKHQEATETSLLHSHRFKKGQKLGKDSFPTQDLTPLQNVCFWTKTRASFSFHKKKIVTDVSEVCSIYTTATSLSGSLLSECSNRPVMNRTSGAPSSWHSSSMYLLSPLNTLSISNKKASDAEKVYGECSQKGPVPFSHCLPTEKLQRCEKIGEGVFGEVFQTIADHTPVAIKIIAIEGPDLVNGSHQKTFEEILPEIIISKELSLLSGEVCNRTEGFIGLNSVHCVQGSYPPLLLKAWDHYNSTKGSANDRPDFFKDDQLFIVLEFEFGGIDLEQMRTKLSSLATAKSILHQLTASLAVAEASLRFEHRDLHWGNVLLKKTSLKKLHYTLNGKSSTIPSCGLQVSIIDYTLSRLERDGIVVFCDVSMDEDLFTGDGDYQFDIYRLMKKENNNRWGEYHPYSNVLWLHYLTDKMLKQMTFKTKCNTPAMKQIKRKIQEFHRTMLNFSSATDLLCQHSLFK

[7] = biological target: Interleukin-1 receptor-associated kinase 3 (Homo sapiens) (UniProt Q9Y616)
[8] = biological target: Mitogen-activated protein kinase 10 (Homo sapiens) (UniProt P53779)
[9] = biological target: MAP/microtubule affinity-regulating kinase 3 (Homo sapiens) (UniProt P27448)
[10] = biological target: T2, Serine/threonine-protein kinase 3 (Homo sapiens) (UniProt Q13188)
T2 sequence (whole entry): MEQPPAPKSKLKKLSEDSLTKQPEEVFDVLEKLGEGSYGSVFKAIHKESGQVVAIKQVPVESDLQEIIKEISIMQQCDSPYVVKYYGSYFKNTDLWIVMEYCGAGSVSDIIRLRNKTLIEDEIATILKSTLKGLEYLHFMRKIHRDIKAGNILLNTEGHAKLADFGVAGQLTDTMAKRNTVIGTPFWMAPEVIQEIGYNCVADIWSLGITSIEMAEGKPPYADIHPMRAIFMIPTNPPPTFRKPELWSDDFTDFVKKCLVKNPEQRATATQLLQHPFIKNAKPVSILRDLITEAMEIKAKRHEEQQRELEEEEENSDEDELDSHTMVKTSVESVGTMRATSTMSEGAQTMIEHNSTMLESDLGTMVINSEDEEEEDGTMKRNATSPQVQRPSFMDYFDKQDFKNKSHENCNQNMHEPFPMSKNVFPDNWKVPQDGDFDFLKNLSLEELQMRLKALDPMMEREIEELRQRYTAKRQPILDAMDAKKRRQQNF

[11] = biological target: Serine/threonine-protein kinase OSR1 (Homo sapiens) (UniProt O95747)
Chain of Serine/threonine-protein kinase OSR1 (Homo sapiens) (O95747 2-527 limits assumed): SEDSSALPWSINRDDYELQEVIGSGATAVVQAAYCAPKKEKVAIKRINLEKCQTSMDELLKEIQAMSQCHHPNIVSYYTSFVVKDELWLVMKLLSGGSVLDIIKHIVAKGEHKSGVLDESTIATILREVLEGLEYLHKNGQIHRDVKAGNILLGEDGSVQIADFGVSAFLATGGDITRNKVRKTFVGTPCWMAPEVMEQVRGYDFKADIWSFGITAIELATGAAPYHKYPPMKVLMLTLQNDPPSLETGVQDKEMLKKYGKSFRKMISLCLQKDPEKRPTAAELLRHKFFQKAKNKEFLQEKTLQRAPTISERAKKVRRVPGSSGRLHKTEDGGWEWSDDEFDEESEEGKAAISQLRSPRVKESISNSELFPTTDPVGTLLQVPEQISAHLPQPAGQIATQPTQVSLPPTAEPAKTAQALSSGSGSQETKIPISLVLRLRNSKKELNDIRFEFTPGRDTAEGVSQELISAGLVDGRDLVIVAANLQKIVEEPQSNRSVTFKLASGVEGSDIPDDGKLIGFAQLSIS

[12] = test system: Phosphatidylinositol 4,5-bisphosphate 3-kinase catalytic subunit alpha isoform (Homo sapiens), P42336 [Q546K]
[13] = biological target: cAMP-dependent protein kinase catalytic subunit alpha (Homo sapiens) (UniProt P17612)
[14] = biological target: Ribosomal protein S6 kinase alpha-5 (Homo sapiens) (UniProt O75582)
Chain of Ribosomal protein S6 kinase alpha-5 (Homo sapiens) (O75582 whole entry, looked up): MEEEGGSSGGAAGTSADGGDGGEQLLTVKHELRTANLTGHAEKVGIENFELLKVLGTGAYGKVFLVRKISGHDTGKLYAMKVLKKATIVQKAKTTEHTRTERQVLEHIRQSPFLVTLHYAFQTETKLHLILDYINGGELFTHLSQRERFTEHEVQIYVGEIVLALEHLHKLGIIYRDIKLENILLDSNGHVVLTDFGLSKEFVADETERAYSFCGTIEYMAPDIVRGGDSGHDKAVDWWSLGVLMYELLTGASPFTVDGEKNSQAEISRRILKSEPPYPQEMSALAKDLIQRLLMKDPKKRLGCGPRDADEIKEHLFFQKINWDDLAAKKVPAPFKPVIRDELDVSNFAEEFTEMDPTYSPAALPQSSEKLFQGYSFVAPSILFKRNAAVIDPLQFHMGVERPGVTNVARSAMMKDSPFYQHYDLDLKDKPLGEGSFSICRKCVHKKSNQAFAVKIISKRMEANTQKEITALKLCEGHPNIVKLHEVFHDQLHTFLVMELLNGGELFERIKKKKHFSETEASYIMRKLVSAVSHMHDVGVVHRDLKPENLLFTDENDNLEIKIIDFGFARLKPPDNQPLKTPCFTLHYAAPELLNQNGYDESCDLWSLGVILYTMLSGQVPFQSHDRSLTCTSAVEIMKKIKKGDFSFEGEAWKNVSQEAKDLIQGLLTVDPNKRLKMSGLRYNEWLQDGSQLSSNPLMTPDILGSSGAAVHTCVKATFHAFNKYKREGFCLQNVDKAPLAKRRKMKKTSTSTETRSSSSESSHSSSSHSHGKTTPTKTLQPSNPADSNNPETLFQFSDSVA

[15] = biological target: T3, TGF-beta receptor type-1 (Homo sapiens) (UniProt P36897)
T3 sequence (whole entry): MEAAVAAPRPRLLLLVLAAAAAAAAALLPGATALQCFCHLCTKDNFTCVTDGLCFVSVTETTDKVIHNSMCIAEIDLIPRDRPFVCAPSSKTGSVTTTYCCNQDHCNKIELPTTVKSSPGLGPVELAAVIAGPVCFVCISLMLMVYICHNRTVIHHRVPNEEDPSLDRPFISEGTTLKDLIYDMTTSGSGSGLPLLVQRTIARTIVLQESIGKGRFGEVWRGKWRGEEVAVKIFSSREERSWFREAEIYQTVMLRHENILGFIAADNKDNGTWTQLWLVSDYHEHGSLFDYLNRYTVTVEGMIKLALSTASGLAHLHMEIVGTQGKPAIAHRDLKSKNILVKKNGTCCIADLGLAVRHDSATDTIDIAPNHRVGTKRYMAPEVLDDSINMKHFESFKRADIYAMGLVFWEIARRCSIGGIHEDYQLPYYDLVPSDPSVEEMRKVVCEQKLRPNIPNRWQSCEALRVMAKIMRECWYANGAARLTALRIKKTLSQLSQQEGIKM

[16] = biological target: Tyrosine-protein kinase receptor Tie-1 (Homo sapiens) (UniProt P35590)
[17] = biological target: 5-hydroxytryptamine receptor 2B (Homo sapiens, UniProt P41595); conditions: Compound concentration 10.0 uM
[18] = biological target: Muscarinic acetylcholine receptor M3 (Homo sapiens) (UniProt P20309); conditions: Compound concentration 10.0 uM
Chain of Muscarinic acetylcholine receptor M3 (Homo sapiens) (P20309 whole entry, looked up): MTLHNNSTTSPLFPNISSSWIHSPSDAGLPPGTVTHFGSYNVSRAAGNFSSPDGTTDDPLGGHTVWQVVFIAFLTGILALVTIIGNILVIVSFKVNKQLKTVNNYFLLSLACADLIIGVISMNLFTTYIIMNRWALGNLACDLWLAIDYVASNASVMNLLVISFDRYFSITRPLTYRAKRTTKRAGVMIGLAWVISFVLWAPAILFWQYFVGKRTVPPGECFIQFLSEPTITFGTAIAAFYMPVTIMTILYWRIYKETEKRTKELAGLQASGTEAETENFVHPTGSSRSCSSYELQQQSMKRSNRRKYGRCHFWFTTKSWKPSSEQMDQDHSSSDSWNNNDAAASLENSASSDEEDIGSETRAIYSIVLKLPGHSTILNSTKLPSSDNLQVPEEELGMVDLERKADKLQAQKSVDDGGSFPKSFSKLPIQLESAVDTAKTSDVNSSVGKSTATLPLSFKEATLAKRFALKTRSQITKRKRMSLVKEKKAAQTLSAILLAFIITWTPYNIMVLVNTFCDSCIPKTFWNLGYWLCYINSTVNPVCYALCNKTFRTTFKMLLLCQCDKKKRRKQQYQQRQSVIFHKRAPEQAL

[19] = Compound concentration 1000.0 nM
[20] = Compound concentration 100.0 nM

Chain of Cyclin-dependent kinase-like 3 (Homo sapiens) (Q8IVW4 whole entry, looked up): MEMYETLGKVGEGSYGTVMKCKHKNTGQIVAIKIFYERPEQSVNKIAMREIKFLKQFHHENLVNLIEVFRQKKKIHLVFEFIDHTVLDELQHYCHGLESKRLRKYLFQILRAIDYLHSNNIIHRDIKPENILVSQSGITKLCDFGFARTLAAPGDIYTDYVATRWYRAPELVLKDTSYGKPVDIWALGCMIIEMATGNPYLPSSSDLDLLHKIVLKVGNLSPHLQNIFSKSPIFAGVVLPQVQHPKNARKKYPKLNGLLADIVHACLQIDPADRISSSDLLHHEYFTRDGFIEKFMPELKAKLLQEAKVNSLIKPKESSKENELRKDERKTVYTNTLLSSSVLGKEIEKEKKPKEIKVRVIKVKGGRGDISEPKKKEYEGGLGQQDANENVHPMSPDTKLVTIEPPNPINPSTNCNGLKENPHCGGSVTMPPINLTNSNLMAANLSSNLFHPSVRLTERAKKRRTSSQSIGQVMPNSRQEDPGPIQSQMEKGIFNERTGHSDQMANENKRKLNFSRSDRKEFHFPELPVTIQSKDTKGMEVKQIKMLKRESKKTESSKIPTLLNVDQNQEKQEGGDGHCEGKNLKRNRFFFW
Chain of Tyrosine-protein kinase ABL1 (Homo sapiens) (P00519 whole entry): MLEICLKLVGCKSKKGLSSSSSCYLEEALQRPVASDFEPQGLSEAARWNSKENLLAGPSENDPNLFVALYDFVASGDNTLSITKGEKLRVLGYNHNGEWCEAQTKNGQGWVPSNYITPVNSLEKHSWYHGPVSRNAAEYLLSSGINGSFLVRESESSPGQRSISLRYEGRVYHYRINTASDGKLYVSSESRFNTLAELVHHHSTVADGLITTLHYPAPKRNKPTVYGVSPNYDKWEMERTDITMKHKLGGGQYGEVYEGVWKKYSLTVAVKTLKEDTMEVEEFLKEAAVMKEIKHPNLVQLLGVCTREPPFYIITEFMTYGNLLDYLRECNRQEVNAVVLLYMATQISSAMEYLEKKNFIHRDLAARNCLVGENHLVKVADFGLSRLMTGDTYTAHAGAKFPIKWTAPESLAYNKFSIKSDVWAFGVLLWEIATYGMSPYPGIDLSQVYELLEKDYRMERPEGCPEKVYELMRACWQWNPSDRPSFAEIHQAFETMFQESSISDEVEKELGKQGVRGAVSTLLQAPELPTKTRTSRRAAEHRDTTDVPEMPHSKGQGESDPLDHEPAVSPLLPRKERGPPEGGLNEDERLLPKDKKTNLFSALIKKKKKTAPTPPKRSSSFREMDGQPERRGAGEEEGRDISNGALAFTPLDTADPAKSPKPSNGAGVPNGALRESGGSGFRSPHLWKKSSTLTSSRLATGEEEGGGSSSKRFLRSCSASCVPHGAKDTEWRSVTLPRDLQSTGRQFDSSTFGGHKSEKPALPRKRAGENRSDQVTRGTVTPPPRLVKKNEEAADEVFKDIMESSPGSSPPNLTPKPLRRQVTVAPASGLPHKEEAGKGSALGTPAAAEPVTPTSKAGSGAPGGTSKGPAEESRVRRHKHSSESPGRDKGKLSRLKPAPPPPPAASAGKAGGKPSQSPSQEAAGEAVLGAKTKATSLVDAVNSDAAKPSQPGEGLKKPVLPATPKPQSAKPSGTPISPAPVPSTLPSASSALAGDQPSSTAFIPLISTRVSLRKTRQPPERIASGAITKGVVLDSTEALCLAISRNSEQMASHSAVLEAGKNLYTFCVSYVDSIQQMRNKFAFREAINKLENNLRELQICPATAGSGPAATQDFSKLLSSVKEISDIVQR

## C[C@@H]1CN(c2cc(-c3nn(C)c4ccc(OC5(C)CC5)cc34)ncn2)C[C@H](C)O1 [MLi-2-NC]
[1]; [19]
  residual activity: 79%
[2]; [19]
  residual activity: 73%
[3]; [19]
  residual activity: 88%
[4]; [19]
  residual activity: 100%
[5]; [19]
  residual activity: 96%
[6]; [19]
  residual activity: 99%
[7]; [19]
  residual activity: 89%
[8]; [19]
  residual activity: 71%
[9]; [19]
  residual activity: 100%
[10]; [19]
  residual activity: 100%
[11]; [19]
  residual activity: 93%
[12]; [19]
  residual activity: 39%
[13]; [19]
  residual activity: 95%
[14]; [19]
  residual activity: 100%
[15]; [19]
  residual activity: 89%
[16]; [19]
  residual activity: 92%
[17]
  inhibition: 26.7%
[18]
  inhibition: 6.03%

## C[C@@H]1CN(c2cc(-c3n[nH]c4ccc(OC5(C)CC5)cc34)ncn2)C[C@H](C)O1 [MLi-2]
[1]; [20]
  residual activity: 67%
[2]; [20]
  residual activity: 96%
[3]; [20]
  residual activity: 75%
[4]; [20]
  residual activity: 82%
[5]; [20]
  residual activity: 100%
[6]; [20]
  residual activity: 74%
[7]; [20]
  residual activity: 94%
[8]; [20]
  residual activity: 77%
[9]; [20]
  residual activity: 73%
[10]; [20]
  residual activity: 78%
[11]; [20]
  residual activity: 72%
[12]; [20]
  residual activity: 69%
[13]; [20]
  residual activity: 85%
[14]; [20]
  residual activity: 97%
[15]; [20]
  residual activity: 100%
[16]; [20]
  residual activity: 67%
[17]
  inhibition: 41.4%
[18]
  inhibition: 7.93%
